According to patent US6346613B1, “Composition and method for enhancing paracellular transport across cell layers” (Elan Corporation, plc, priority 1997, dated 2002):
Several values for one entry are separate records, joined by “and”; a condition that tells them apart may be missing. Equal values may be shown once.

What was measured:
Caco-2 monolayers = test: Transepithelial electrical resistance (TER) of Caco-2 monolayers on snapwells; assay type: cell-based, Human; parameters: unit not given beside the values; settings: Experiment 1, per snapwell, treatment with lipofectamine + oligonucleotide
Description: All solutions were warmed to 37° C. before use.

[1] = Experiment 1, [3H]-mannitol, 90 minutes, Caco-2

Description for polarized Caco-2 cells: Human intestinal Caco-2 cells were grown using standard techniques well known to those skilled in the art. The cells were seeded onto polycarbonate filters (Costar Snapwells; diameter=12 mm; area=1.13 cm^2; pore size=0.4m) at a density of 0.5×10^6 cm^2. For antisense oligonucleotide studies, 18-25 day old cell monolayers were used which have transepithelial electrical resistance (TER) measurements in the range 200-400 cm^2.
All incubations were at 37° C. in 5% CO2 atmosphere. All solutions were warmed to 37° C. before use. The following procedure was carried out once a day over three days. After reading the TER, the cells were washed once and incubated in a reduced serum medium (RSM; Opti-MEM 1 with GlutaMax 1; Gibco-BRL) for 30 minutes. Meanwhile, the lipofectamine-oligonucleotide complex was allowed to form at room temperature. Lipofectamine (20 μl/snapwell; Gibco BRL CN. 18324-012) was mixed with occludin antisense DNA oligonucleotide, with occludin scrambled oligonucleotide or with water control in RSM.
The lipofectin:oligonucleotide complex was added to the apical surface of the snapwells and the cells were incubated for 2 hours. The apical and basolateral media were then replaced with normal medium (except on day 4). After the 2 hour incubation on day 3, transepithelial flux of ^3H-mannitol was measured.
Caco-2 cells were washed once in buffered Hank's balanced salt solution (bHBSS; Gibco CN.14065-031; supplemented with 0.011M glucose, 15 mM HEPES acid [3.575 g/l; Sigma CN.H3375], 10 mM HEPES base [2.603 g/l; Sigma CN. H1016]) and were incubated 30 minutes. The apical reservoir bHBSS was replaced with 1 ml buffered HBSS containing 1 μCi/ml of the hydrophilic marker ^3H-mannitol (New England Biolabs). […] The samples were added to 4 ml scintillation fluid and radioactivity for each vial counted on a scintillation counter.
Fully differentiated Caco-2 monolayers were grown as in Example 1. […] On day 4, [^3H]-mannitol was applied to the apical domain and flux was determined by measuring the radioactivity (cpm) transferred to the basolateral reservoir over 90 minutes as in Example 3. […]

Substance	TER (Caco-2 monolayers; listed as Lipofectamine + Occludin Antisense)	increase in flux relative to no oligonucleotide (polarized Caco-2 cells; [1]) [fold]	increase in flux relative to occludin scrambled oligonucleotide (polarized Caco-2 cells; [1]) [fold]	mean increase in [3H]-mannitol flux relative to control scrambled sequence antisense DNA (polarized Caco-2 cells; Experiment 2 (FIG. 2), 500 μM, Caco-2 monolayers on snapwells) [fold]	TER (Caco-2 monolayers; listed as Lipofectamine + Scrambled Antisense)
5′ AAG AGG CCT GGA TGA CA 3′ (antisense AAGAGGCCTGGATGACA; chemistry not given here) [occludin antisense oligonucleotide]	1260 and 1410	1.6	1.6	2.2	
5′ GCA AGT CAG GAC GTA GA 3′ (GCAAGTCAGGACGTAGA; chemistry not given here) [occludin scrambled oligonucleotide, reference compound]					1280 and 1700
